Assay results reported in PubChem BioAssay AID330 (DTP/NCI, 2004).
Several values for one entry are separate records, joined by “and”; a condition that tells them apart may be missing. Equal values may be shown once. Inconclusive results and toxic doses are left out. Rule for the calls: active = survival T/C of 150% or more; inactive = T/C below 125% in these data.

Test system: P388 leukemia ip, CD2F1 mice, survival T/C
Assay: NCI In Vivo Anticancer Drug Screen. Data for tumor model P388 Leukemia (intraperitoneal) in CD2F1 (CDF1) mice
Details: endpoint: median survival time, higher = longer survival
Procedure, shortened: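 Mice carrying the transplanted tumor received test compound or vehicle. Survival was recorded in each group, and the value is the treated-group measurement divided by that of the vehicle-treated control group.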

[1] = dose: 60.0 mg/kg/injection, schedule: Q01DX005 (ip), vehicle: saline with Tween-80
[2] = dose: 120.0 mg/kg/injection, schedule: Q01DX005 (ip), vehicle: saline with Tween-80
[3] = dose: 240.0 mg/kg/injection, schedule: Q01DX005 (ip), vehicle: saline with Tween-80
[4] = dose: 50.0 mg/kg/injection, schedule: Q01DX009 (ip), vehicle: saline with Tween-80
[5] = dose: 100.0 mg/kg/injection, schedule: Q01DX009 (ip), vehicle: saline with Tween-80
[6] = dose: 200.0 mg/kg/injection, schedule: Q01DX009 (ip), vehicle: saline with Tween-80
[7] = dose: 100.0 mg/kg/injection, schedule: Q01DX009 (ip), vehicle: Klucel (hydroxypropylcellulose) (HPC)
[8] = dose: 200.0 mg/kg/injection, schedule: Q01DX009 (ip), vehicle: Klucel (hydroxypropylcellulose) (HPC)
[9] = dose: 12.5 mg/kg/injection, schedule: Q01DX009 (ip), vehicle: Klucel (hydroxypropylcellulose) (HPC)
[10] = dose: 25.0 mg/kg/injection, schedule: Q01DX009 (ip), vehicle: Klucel (hydroxypropylcellulose) (HPC)
[11] = dose: 50.0 mg/kg/injection, schedule: Q01DX009 (ip), vehicle: Klucel (hydroxypropylcellulose) (HPC)
[12] = dose: 50.0 mg/kg/injection, schedule: Q01DX005 (ip), vehicle: Klucel (hydroxypropylcellulose) (HPC)
[13] = dose: 100.0 mg/kg/injection, schedule: Q01DX005 (ip), vehicle: Klucel (hydroxypropylcellulose) (HPC)
[14] = dose: 200.0 mg/kg/injection, schedule: Q01DX005 (ip), vehicle: Klucel (hydroxypropylcellulose) (HPC)
[15] = dose: 100.0 mg/kg/injection, schedule: Q01DX009 (ip), vehicle: suspension in saline
[16] = dose: 200.0 mg/kg/injection, schedule: Q01DX009 (ip), vehicle: suspension in saline
[17] = dose: 6.25 mg/kg/injection, schedule: Q01DX009 (ip), vehicle: saline with Tween-80
[18] = dose: 12.5 mg/kg/injection, schedule: Q01DX009 (ip), vehicle: saline with Tween-80
[19] = dose: 25.0 mg/kg/injection, schedule: Q01DX009 (ip), vehicle: saline with Tween-80

Measured: T/C

CN(O)C(=O)CCCCCCCCC(=O)N(C)O
inactive: [1] 103 % of control | [2] 105 % of control | [3] 114 % of control

Cc1ccc(S(=O)(=O)NN=C2C3CCC2CC3)cc1
inactive: [4] 111 % of control | [5] 108 % of control | [6] 118 % of control

Cc1nnc(N/N=C/c2ccc([N+](=O)[O-])o2)[nH]c1=O
inactive: dose: 6.25 mg/kg/injection, schedule: Q01DX005 (ip), vehicle: saline with Tween-80 101 % of control and 114 % of control | dose: 12.5 mg/kg/injection, schedule: Q01DX005 (ip), vehicle: saline with Tween-80 115 % of control and 118 % of control (2×)

COc1cccc(-c2nsc(=O)o2)c1
inactive: [7] 108 % of control | [8] 109 % of control

CSc1nc2ccc(NC(C)=O)cc2s1
inactive: [9] 111 % of control | [10] 107 % of control | [11] 102 % of control and 87 % of control | [8] 90 % of control

O=C1c2ccccc2C(=O)c2c1cccc2-c1ccccc1
inactive: [12] 86 % of control | [13] 87 % of control | [14] 88 % of control

S=C(SSC(=S)C1CCCC1=NC1CCCCC1)C1CCCC1=NC1CCCCC1 (configuration not stated)
inactive: [11] 101 % of control | [7] 108 % of control | [8] 108 % of control

CN/N=C/c1cc(=O)n(C)c(=O)n1C
inactive: [4] 101 % of control | [5] 101 % of control | [6] 99 % of control

Cc1ccc(C(C(C)[N+](=O)[O-])C(C(=O)c2ccccc2)S(=O)(=O)c2ccccc2)cc1 (configuration not stated)
inactive: [12] 93 % of control | [13] 106 % of control and 91 % of control | [14] 106 % of control and 89 % of control

CCC(O)C1(C#Cc2ccccc2)Sc2ccccc2N1C (configuration not stated)
inactive: [1] 107 % of control | [2] 110 % of control | [3] 110 % of control

CCOC(=O)/C=C1/C(=O)OC2C1OC1OC(C)(C)OC12 (configuration not stated)
inactive: dose: 3.75 mg/kg/injection, schedule: Q01DX005 (ip), vehicle: saline with Tween-80 98 % of control | dose: 7.5 mg/kg/injection, schedule: Q01DX005 (ip), vehicle: saline with Tween-80 97 % of control

CCCCCC1NC(C(=O)O)CS1 (configuration not stated)
inactive: dose: 50.0 mg/kg/injection, schedule: Q01DX009 (ip), vehicle: suspension in saline 88 % of control | [15] 94 % of control | [16] 102 % of control

C=CCOc1c2c(cc3ccc(=O)oc13)CC=CO2
inactive: [9] 95 % of control | [10] 105 % of control | [11] 98 % of control and 100 % of control | [7] 112 % of control

CCSc1nc2ccc(NC(=O)CCC(=O)O)cc2s1
inactive: [11] 103 % of control | [7] 102 % of control | [8] 101 % of control

Cc1cc(=O)c2cc3nc(-c4cccnc4)oc3c(Br)c2o1
inactive: [12] 97 % of control | [13] 96 % of control | [14] 88 % of control

Nc1nc2c(ncn2C2OC(CO)C(O)C2O)c(=O)[nH]1 (configuration not stated)
inactive: dose: 25.0 mg/kg/injection, schedule: Q04DX003 (ip), vehicle: saline with Tween-80 103 % of control and 106 % of control | dose: 50.0 mg/kg/injection, schedule: Q04DX003 (ip), vehicle: saline with Tween-80 120 % of control | [15] 110 % of control | dose: 100.0 mg/kg/injection, schedule: Q04DX003 (ip), vehicle: saline with Tween-80 90 % of control | [6] 111 % of control | [16] 92 % of control | dose: 300.0 mg/kg/injection, schedule: Q01DX009 (ip), vehicle: saline with Tween-80 106 % of control | dose: 400.0 mg/kg/injection, schedule: Q01DX009 (ip), vehicle: saline with Tween-80 102 % of control | dose: 400.0 mg/kg/injection, schedule: Q01DX009 (ip), vehicle: suspension in saline 119 % of control and 97 % of control | dose: 400.0 mg/kg/injection, schedule: Q04DX003 (ip), vehicle: saline with Tween-80 100 % of control | dose: 600.0 mg/kg/injection, schedule: Q01DX009 (ip), vehicle: saline with Tween-80 90 % of control | dose: 800.0 mg/kg/injection, schedule: Q01DX009 (ip), vehicle: saline with Tween-80 114 % of control | dose: 800.0 mg/kg/injection, schedule: Q01DX009 (ip), vehicle: suspension in saline 113 % of control and 94 % of control | dose: 1200.0 mg/kg/injection, schedule: Q01DX009 (ip), vehicle: saline with Tween-80 95 % of control | dose: 1600.0 mg/kg/injection, schedule: Q01DX009 (ip), vehicle: saline with Tween-80 99 % of control | dose: 1600.0 mg/kg/injection, schedule: Q01DX009 (ip), vehicle: suspension in saline 112 % of control and 95 % of control | dose: 2400.0 mg/kg/injection, schedule: Q01DX009 (ip), vehicle: saline with Tween-80 100 % of control | dose: 2400.0 mg/kg/injection, schedule: Q01DX009 (ip), vehicle: suspension in saline 117 % of control

Cc1ccc(S(=O)(=O)N2CCCC2C(=O)NNC(N)=S)cc1 (configuration not stated)
inactive: [12] 99 % of control | [13] 89 % of control | [14] 91 % of control

Clc1ccccc1C=NCC1CCC(CN=Cc2ccccc2Cl)CC1 (configuration not stated)
inactive: [17] 99 % of control | [18] 101 % of control | [19] 100 % of control | [4] 116 % of control

CC(C)(O)c1cc2nc3ccccc3nc2n1CCO
inactive: [1] 109 % of control | [2] 107 % of control | [3] 108 % of control

[NH-]C(CCC(N)=O)C(=O)O.[NH-]C(CCC(N)=O)C(=O)O.[Ni+2] (configuration not stated)
inactive: dose: 6.25 mg/kg/injection, schedule: Q01DX005 (ip), vehicle: saline 93 % of control | dose: 12.5 mg/kg/injection, schedule: Q01DX005 (ip), vehicle: saline 96 % of control

Clc1ccc(NCc2ccc(CNc3ccc(Cl)cc3)cc2)cc1
inactive: [17] 98 % of control | [18] 91 % of control | [19] 91 % of control | [4] 97 % of control

Cc1nc2ccc(N(C)C)cc2c2c1Cc1c(C)nc3ccc(N(C)C)cc3c1O2
inactive: [1] 88 % of control | [2] 88 % of control | [3] 94 % of control

CN(NC1OC(=O)c2ccccc21)c1ccc(C(F)(F)F)cc1[N+](=O)[O-] (configuration not stated)
inactive: dose: 60.0 mg/kg/injection, schedule: Q01DX005 (ip), vehicle: Klucel (hydroxypropylcellulose) (HPC) 95 % of control | dose: 120.0 mg/kg/injection, schedule: Q01DX005 (ip), vehicle: Klucel (hydroxypropylcellulose) (HPC) 98 % of control | dose: 240.0 mg/kg/injection, schedule: Q01DX005 (ip), vehicle: Klucel (hydroxypropylcellulose) (HPC) 100 % of control

CN=c1s[se]c2ccccc12
inactive: [9] 102 % of control | [10] 94 % of control

CCCCCCc1c(C#N)c(S)[nH]c(=S)c1C#N
inactive: dose: 12.5 mg/kg/injection, schedule: Q01DX009 (ip), vehicle: saline 95 % of control | dose: 25.0 mg/kg/injection, schedule: Q01DX009 (ip), vehicle: saline 106 % of control | dose: 50.0 mg/kg/injection, schedule: Q01DX009 (ip), vehicle: saline 106 % of control and 96 % of control

CCN(CC)CCCC(C)Sc1ccnc2cc(Cl)ccc12 (configuration not stated)
inactive: dose: 50.0 mg/kg/injection, schedule: Q01DX005 (ip), vehicle: saline with Tween-80 95 % of control | dose: 100.0 mg/kg/injection, schedule: Q01DX005 (ip), vehicle: saline with Tween-80 101 % of control | dose: 200.0 mg/kg/injection, schedule: Q01DX005 (ip), vehicle: saline with Tween-80 106 % of control
